In one test the target is T1, HiBit-BRM fusion protein (Homo sapiens, UniProt P51531).
T1 construct: expressed in transfected cells
Description: HiBiT-BRM cell-based degradation assay (Nano-Glo HiBiT Lytic Detection, 24 h). To be noted: HeLa cells expressing HiBiT-BRM; for DC50: read-out: BRM HiBit Degradation IC50; for BRM HiBit Degradation Maximum measured: top dose 30 μM. In short, it runs like this: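 Residual HiBiT-BRM in a stable HeLa line was measured by Nano-Glo lytic luminescence after 24 h compound exposure (top final dose 30 μM, 3-fold, 10 points, duplicate). Values are % degradation, scaled between DMSO-treated cells and cells given 2 μM of a known BRM/BRG1 degrader.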
Background: With HiBiT, luminescence reflects the tagged protein that the partner subunit can reach.

Test [1] has as its target T2, HiBit-BRG1 fusion protein (Homo sapiens, UniProt P51532).
T2 construct: expressed in transfected cells
Put plainly: HiBiT-BRG1 cell-based degradation assay (Nano-Glo HiBiT Lytic Detection, 24 h). To be noted: HeLa cells expressing HiBit-BRG1 and LgBit; for DC50: read-out: BRG1 HiBit Degradation IC50; for Dmax: HeLa, top dose 30 μM, read-out: BRG1 HiBit Degradation Maximum measured. In short, it runs like this:
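Degradation is scaled from DMSO-treated cells (0%) to cells given 2 μM of a known BRM/BRG1 degrader (100%). HeLa cells stably carrying HiBiT-BRG1 plus LgBiT (5000/well) were lysed with Nano-Glo HiBiT detection reagent, shaken 10 min at RT, and luminescence read.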

Structures can show the parent of a compound that is named as a salt.

T2 sequence (P51532 whole entry, the tested form may be a part): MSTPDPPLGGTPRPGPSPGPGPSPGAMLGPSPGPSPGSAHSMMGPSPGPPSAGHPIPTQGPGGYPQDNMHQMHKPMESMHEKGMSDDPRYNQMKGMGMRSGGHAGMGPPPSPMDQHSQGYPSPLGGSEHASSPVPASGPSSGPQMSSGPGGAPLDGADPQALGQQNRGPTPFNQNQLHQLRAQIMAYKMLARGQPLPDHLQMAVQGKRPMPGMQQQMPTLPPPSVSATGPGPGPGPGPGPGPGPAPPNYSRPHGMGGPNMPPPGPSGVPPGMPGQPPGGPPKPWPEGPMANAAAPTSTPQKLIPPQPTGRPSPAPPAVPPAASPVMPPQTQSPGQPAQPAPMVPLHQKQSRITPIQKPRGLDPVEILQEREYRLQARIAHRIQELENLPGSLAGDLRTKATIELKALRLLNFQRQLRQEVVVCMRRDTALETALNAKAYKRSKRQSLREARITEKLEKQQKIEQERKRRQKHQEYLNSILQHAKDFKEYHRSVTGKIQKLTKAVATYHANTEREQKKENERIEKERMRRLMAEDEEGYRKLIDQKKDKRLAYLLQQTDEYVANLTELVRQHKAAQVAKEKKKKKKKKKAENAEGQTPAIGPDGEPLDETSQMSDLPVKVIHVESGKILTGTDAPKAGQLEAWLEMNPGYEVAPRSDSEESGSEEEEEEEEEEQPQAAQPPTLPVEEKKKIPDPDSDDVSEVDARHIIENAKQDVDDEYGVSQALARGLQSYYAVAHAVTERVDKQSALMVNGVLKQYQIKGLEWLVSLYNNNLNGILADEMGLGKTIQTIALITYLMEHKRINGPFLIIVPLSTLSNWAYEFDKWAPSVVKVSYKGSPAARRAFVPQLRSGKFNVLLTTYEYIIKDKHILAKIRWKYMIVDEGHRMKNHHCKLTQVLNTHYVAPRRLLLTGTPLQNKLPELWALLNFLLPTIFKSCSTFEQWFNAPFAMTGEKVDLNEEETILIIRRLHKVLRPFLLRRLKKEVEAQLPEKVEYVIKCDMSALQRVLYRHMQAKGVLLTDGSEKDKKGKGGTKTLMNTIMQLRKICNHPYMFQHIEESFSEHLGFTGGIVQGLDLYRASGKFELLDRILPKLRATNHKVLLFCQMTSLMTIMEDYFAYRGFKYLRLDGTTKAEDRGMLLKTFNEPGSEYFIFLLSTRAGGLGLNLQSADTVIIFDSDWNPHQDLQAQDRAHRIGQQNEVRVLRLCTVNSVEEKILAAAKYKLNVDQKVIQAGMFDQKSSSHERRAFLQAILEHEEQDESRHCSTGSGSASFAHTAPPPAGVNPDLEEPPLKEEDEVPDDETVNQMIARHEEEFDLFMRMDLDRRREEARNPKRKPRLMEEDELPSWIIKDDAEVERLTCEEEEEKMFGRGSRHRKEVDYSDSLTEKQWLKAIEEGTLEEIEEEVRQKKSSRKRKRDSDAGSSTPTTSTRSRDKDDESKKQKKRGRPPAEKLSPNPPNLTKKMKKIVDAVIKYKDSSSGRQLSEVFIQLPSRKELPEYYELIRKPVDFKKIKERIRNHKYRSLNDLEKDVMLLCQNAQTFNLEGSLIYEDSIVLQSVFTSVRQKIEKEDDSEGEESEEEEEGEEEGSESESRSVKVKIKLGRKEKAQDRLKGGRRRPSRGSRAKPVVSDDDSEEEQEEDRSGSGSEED
T1 sequence (P51531 whole entry, the tested form may be a part): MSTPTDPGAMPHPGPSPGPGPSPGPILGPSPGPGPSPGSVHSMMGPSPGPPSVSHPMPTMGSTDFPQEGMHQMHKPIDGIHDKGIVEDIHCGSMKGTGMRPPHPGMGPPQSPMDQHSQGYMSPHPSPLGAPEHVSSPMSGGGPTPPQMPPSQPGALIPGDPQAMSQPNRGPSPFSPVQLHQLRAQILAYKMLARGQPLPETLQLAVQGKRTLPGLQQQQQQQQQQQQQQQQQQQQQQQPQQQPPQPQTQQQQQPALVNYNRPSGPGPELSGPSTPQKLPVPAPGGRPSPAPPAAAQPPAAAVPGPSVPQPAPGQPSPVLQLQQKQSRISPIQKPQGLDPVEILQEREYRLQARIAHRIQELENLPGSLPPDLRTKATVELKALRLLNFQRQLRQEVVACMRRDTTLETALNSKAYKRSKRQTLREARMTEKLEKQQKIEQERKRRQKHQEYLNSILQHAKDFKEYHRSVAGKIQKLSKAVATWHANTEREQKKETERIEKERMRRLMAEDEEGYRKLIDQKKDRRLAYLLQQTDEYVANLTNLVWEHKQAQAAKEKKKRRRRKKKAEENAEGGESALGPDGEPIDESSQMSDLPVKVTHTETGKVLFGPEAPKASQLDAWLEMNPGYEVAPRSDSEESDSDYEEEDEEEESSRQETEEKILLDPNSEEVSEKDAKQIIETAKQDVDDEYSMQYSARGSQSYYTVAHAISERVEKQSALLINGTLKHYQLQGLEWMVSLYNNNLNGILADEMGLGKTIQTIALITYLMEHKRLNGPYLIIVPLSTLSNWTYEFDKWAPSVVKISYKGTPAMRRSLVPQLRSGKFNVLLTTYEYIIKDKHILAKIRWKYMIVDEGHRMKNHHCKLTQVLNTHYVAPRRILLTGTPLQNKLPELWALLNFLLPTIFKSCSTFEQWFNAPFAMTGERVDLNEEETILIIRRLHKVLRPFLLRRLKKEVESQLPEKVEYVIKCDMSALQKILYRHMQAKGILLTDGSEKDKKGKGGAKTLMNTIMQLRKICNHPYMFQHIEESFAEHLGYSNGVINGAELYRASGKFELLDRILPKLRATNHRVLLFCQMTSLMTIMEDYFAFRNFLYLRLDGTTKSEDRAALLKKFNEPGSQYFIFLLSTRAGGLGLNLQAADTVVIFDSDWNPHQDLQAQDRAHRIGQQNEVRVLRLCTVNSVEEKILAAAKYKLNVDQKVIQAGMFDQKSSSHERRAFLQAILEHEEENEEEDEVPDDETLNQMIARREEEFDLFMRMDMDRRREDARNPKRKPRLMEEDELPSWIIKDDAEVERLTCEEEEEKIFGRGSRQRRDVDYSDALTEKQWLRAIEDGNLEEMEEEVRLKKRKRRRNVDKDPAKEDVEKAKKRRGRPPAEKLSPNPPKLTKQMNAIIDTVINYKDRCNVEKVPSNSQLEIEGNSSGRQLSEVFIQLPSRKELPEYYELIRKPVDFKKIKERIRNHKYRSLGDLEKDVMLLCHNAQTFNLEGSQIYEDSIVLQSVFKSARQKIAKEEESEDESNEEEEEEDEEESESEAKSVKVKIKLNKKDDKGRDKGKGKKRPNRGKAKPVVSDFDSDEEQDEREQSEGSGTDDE

Take `CS(=O)(=O)n1ccc(C(=O)N[C@@H](CCCCNC(=O)CCN2CCN(c3ccc4c(c3)C(=O)N(C3CCC(=O)NC3=O)C4=O)CC2)C(=O)Nc2nc(-c3ccccc3)cs2)c1` (stereo partly drawn) [Compound 297, N-((2S)-6-(3-(4-(2-(2,6-dioxopiperidin-3-yl)-1,3-dioxoisoindolin-5-yl)piperazin-1-yl)propanamido)-1-oxo-1-((4-phenylthiazol-2-yl)amino)hexan-2-yl)-1-(methylsulfonyl)-1H-pyrrole-3-carboxamide]: at HiBit-BRM fusion protein, the DC50 was > 10 µM and the “BRM HiBit Degradation Maximum measured” value is on record as “C (‘C’ = Maximum degradation <50%)”. Also, in test [1], the DC50 was > 10 µM and the Dmax was < 50%.
In the case of `CS(=O)(=O)n1ccc(C(=O)NCC(=O)Nc2nc(C3CCCN(C(=O)C4CCN(CCOc5ccc6c(c5)C(=O)N(C5CCC(=O)NC5=O)C6=O)CC4)C3)cs2)c1` (stereo not shown) [Compound 145, N-(4-{1-[1-(2-{[2-(2,6-dioxopiperidin-3-yl)-1,3-dioxo-2,3-dihydro-1H-isoindol-5-yl]oxy}ethyl)piperidine-4-carbonyl]piperidin-3-yl}-1,3-thiazol-2-yl)-2-[(1-methanesulfonyl-1H-pyrrol-3-yl)formamido]acetamide formate], on HiBit-BRM fusion protein, the DC50 was > 10 µM and the “BRM HiBit Degradation Maximum measured” value is given as “C (‘C’ = Maximum degradation <50%)”. Further, in test [1], the DC50 is > 10 µM and the Dmax is < 50%.
As to `CS(=O)(=O)n1ccc(C(=O)N[C@@H](COCc2ccc(C(=O)N3CC(CCOc4cccc5c4C(=O)N(C4CCC(=O)NC4=O)C5=O)C3)cc2)C(=O)Nc2nc(-c3ccccc3)cs2)c1` (stereo partly drawn) [Compound 238, (2S)-3-([4-[3-(2-[[2-(2,6-dioxopiperidin-3-yl)-1,3-dioxoisoindol-4-yl]oxy]ethyl)azetidine-1-carbonyl]phenyl]methoxy)-2-[(1-methanesulfonylpyrrol-3-yl)formamido]-N-(4-phenyl-1,3-thiazol-2-yl)propanamide], on HiBit-BRM fusion protein, the DC50 was > 10 µM and the “BRM HiBit Degradation Maximum measured” value was “C (‘C’ = Maximum degradation <50%)”. Besides, in test [1], the DC50 is > 10 µM and the Dmax is < 50%.
`CS(=O)(=O)n1ccc(C(=O)NCC(=O)Nc2nc(-c3cccc(-c4ccnc(N5CCN(C(=O)CCOCCOCCOc6cccc7c6C(=O)N(C6CCC(=O)NC6=O)C7=O)CC5)c4)c3)cs2)c1` (stereo not shown) [Compound 34, N-(2-((4-(3-(2-(4-(3-(2-(2-((2-(2,6-dioxopiperidin-3-yl)-1,3-dioxoisoindolin-4-yl)oxy)ethoxy)ethoxy)propanoyl)piperazin-1-yl)pyridin-4-yl)phenyl)thiazol-2-yl)amino)-2-oxoethyl)-1-(methylsulfonyl)-1H-pyrrole-3-carboxamide]: at HiBit-BRM fusion protein, the DC50 fell in the range of 0.1 to 1 µM; the “BRM HiBit Degradation Maximum measured” value is “B (‘B’ = Maximum degradation ≥50% and ≤75%)”. In test [1], the DC50 fell in the range of 0.1 to 1 µM and the Dmax is 50 to 75%.

Values taken from patent US12662479B2 (Foghorn Therapeutics Inc., priority 2020, dated 2026).
